Test results taken from patent US9346820B2, “HIV-1 protease inhibitors having gem-di-fluoro bicyclic P2-ligands” (priority 2013, dated 2016).
Where two headings read alike, the source gives them in different places.

Columns and labels:
Format in all cases: cell-based
HIV-1APV^R5μM = assay: microbe, parasite or virus in culture; details: for EC50: Human immunodeficiency virus 1, MT4, read-out: EC50 HIV-1APV^R5μM; for fold change of EC50 HIV-1APV^R5μM vs HIV-1NL4-3: number in parentheses
Procedure: (§1) The susceptibility of HIV-1LAI to various drugs was determined as previously described with minor modifications. Briefly, MT-2 cells (10^4/ml) were exposed to 100 50% tissue culture infectious doses (TCID50) of HIV-1LAI in the presence or absence of various concentrations of drugs in 96-well microculture plates and were incubated at 37° C. for 7 days. After 100 μl of the medium was removed from each well, 3-(4,5-dimetylthiazol-2-yl)-2,5-diphenyltetrazolium bromide (MTT) solution (10 μl, 7.5 mg/ml in phosphate-buffered saline) was added to each well in the plate, followed by incubation at 37° C. for 2 h. […] All assays were performed in duplicate or triplicate. […] To determine the sensitivity of primary HIV-1 isolates to drugs, phytohemagglutinin-stimulated peripheral blood mononuclear cells (PHA-PBMC) (10^6/ml) were exposed to 50 TCID50 of each primary HIV-1 isolate and cultured in the presence or absence of various concentrations of drugs in 10-fold serial dilutions in 96-well microculture plates. In determining the drug susceptibility of certain laboratory HIV-1 strains, MT-4 cells were employed as target cells as previously described with minor modifications. In brief, MT-4 cells (10^5/ml) were exposed to 100 TCID50 of drug-resistant HIV-1 strains in the presence or absence of various concentrations of drugs and were incubated at 37° C. On day 7 of culture, the supernatants were harvested and the amounts of p24 Gag protein were determined by using a fully automated chemiluminescent enzyme immunoassay system (Lumipulse F: Fujirebio Inc., Tokyo). […] All assays were performed in duplicate or triplicate. PHA-PBMs were derived from a single donor in each independent experiment. Thus, for obtaining the data, three different donors were recruited.

HIV-1ATV^R5μM = assay: microbe, parasite or virus in culture; details: for EC50: Human immunodeficiency virus 1, MT4, read-out: EC50 HIV-1ATV^R5μM; for fold change of EC50 HIV-1ATV^R5μM vs HIV-1NL4-3: number in parentheses
Procedure: as §1

HIV-1LPV^R5μM = assay: microbe, parasite or virus in culture; details: for EC50: Human immunodeficiency virus 1, MT4, read-out: EC50 HIV-1LPV^R5μM; for fold change of EC50 HIV-1LPV^R5μM vs HIV-1NL4-3: number in parentheses
Procedure: as §1

HIV-1SQV^R5μM = assay: microbe, parasite or virus in culture; details: for EC50: Human immunodeficiency virus 1, MT4, read-out: EC50 HIV-1SQV^R5μM; for fold change of EC50 HIV-1SQV^R5μM vs HIV-1NL4-3: number in parentheses
Procedure: as §1

HIV-1NL4-3 = assay: p24 Gag production inhibition in MT-4 cells, wild-type laboratory strain
Procedure: as §1

[1] = Cytotoxicity (CC50), MTT assay; details: human
Procedure: The susceptibility of HIV-1LAI to various drugs was determined as previously described with minor modifications. Briefly, MT-2 cells (10^4/ml) were exposed to 100 50% tissue culture infectious doses (TCID50) of HIV-1LAI in the presence or absence of various concentrations of drugs in 96-well microculture plates and were incubated at 37° C. for 7 days. After 100 μl of the medium was removed from each well, 3-(4,5-dimetylthiazol-2-yl)-2,5-diphenyltetrazolium bromide (MTT) solution (10 μl, 7.5 mg/ml in phosphate-buffered saline) was added to each well in the plate, followed by incubation at 37° C. for 2 h. […] All assays were performed in duplicate or triplicate. […] In determining the drug susceptibility of certain laboratory HIV-1 strains, MT-4 cells were employed as target cells as previously described with minor modifications. In brief, MT-4 cells (10^5/ml) were exposed to 100 TCID50 of drug-resistant HIV-1 strains in the presence or absence of various concentrations of drugs and were incubated at 37° C. On day 7 of culture, the supernatants were harvested and the amounts of p24 Gag protein were determined by using a fully automated chemiluminescent enzyme immunoassay system (Lumipulse F: Fujirebio Inc., Tokyo). […] All assays were performed in duplicate or triplicate. PHA-PBMs were derived from a single donor in each independent experiment. Thus, for obtaining the data, three different donors were recruited.

HIV-1LAI = assay: Drug susceptibility MTT assay, MT-2 cells exposed to HIV-1LAI; details: for Selectivity Index: ratio of CC50 to EC50 against HIV-1LAI
Procedure: as §1

[2] = tested on: HIV-1GRL-04810^RP18, and HIV-1GRL-05010^RP10; assay: p24 assay, the two GRL-selected variants taken together; details: Human immunodeficiency virus 1, read-out: EC50 values against HIV-1GRL-04810^RP18 and HIV-1GRL-05010^RP10
Procedure: as §1

[3] = Human immunodeficiency virus 1, MT4, read-out: EC50 HIV-1NL4-3
[4] = Human immunodeficiency virus 1, MT2, read-out: EC50 HIV-1LAI, MT-2 cells, 100 TCID50, MTT assay
[5] = read-out: EC50 HIV-1LAI, MT-2 cells, 100 TCID50, MTT assay
[6] = Human immunodeficiency virus 1, MT4, MT-4 cells, p24 Gag endpoint, read-out: EC50 HIV-1NL4-3
[7] = Human immunodeficiency virus 1, MT2, MT-2 cells, 100 TCID50, MTT assay, read-out: EC50 HIV-1LAI

What does the source list for `COC(=O)N[C@H](C(=O)N[C@@H](Cc1ccccc1)[C@@H](O)CN(Cc1ccc(-c2ccccn2)cc1)NC(=O)[C@@H](NC(=O)OC)C(C)(C)C)C(C)(C)C` [ATV, Atazanavir]?
EC50 (HIV-1APV^R5μM): 660 ± 20 nM; EC50 (HIV-1ATV^R5μM): > 1000 nM; fold change of EC50 HIV-1ATV^R5μM vs HIV-1NL4-3 (HIV-1ATV^R5μM): > 250 fold; EC50 (HIV-1LPV^R5μM): 33 nM; fold change of EC50 HIV-1LPV^R5μM vs HIV-1NL4-3 (HIV-1LPV^R5μM): 8 fold; EC50 (HIV-1SQV^R5μM): > 1000 nM; fold change of EC50 HIV-1SQV^R5μM vs HIV-1NL4-3 (HIV-1SQV^R5μM): > 250 fold; EC50 (HIV-1NL4-3; [3]): 4.7 nM; CC50 at 7 days [1]: 28600 ± 900 nM; EC50 (HIV-1LAI; [4]): 5 to 30 nM; Selectivity Index (HIV-1LAI): 5,720; EC50 (HIV-1LAI; [5]): 5 ± 1 nM

For `CC(C)CN(C[C@@H](O)[C@H](Cc1ccccc1)NC(=O)O[C@H]1CO[C@H]2OCC[C@H]21)S(=O)(=O)c1ccc(N)cc1` [DRV, darunavir], which EC50 (HIV-1APV^R5μM) is on record?
The EC50 was 510 nM.

What about the EC50 (HIV-1ATV^R5μM) of the same compound?
Its EC50 is 50 nM.

And the EC50 (HIV-1LPV^R5μM)?
Its EC50 is 32 nM.

And the EC50 (HIV-1SQV^R5μM)?
Its EC50 is 40 nM.

And the EC50 (HIV-1NL4-3; [3])?
The EC50 was 4 nM.

And the EC50 (HIV-1LAI; [4])?
The EC50 was 5 to 30 nM.

And the EC50 (HIV-1LAI; [5])?
Its EC50 is 5 ± 1 nM.

With `COc1ccc(S(=O)(=O)N(CC(C)C)C[C@@H](O)[C@H](Cc2ccccc2)NC(=O)OC2CO[C@H]3OCC(F)(F)[C@@H]23)cc1` (some centres unmarked) [GRL-04810] as the compound, how does the EC50 (HIV-1APV^R5μM) read?
Its EC50 is 430 nM.

And the “fold change of EC50 HIV-1APV^R5μM vs HIV-1NL4-3” value (HIV-1APV^R5μM)?
The value was 860 fold.

What about the EC50 (HIV-1ATV^R5μM) of the same compound?
Its EC50 is 20 nM.

What about the “fold change of EC50 HIV-1ATV^R5μM vs HIV-1NL4-3” value (HIV-1ATV^R5μM) of the same compound?
The value was 36 fold.

What about the EC50 (HIV-1LPV^R5μM) of the same compound?
Its EC50 is 30 nM.

And the “fold change of EC50 HIV-1LPV^R5μM vs HIV-1NL4-3” value (HIV-1LPV^R5μM)?
The value was 66 fold.

And the EC50 (HIV-1SQV^R5μM)?
The EC50 was 130 nM.

And the “fold change of EC50 HIV-1SQV^R5μM vs HIV-1NL4-3” value (HIV-1SQV^R5μM)?
The value was 260 fold.

And the EC50 [2]?
The EC50 was 29 to 39 nM.

And the EC50 (HIV-1NL4-3; [6])?
The EC50 was 0.5 nM.

And the CC50 at 7 days [1]?
The CC50 at 7 days was 17500 nM.

What about the EC50 (HIV-1LAI; [7]) of the same compound?
The EC50 was 0.8 nM.

What about the “Selectivity Index” value (HIV-1LAI) of the same compound?
The value was 21,875.

Which EC50 (HIV-1APV^R5μM) does the source give for `CC(C)CN(C[C@@H](O)[C@H](Cc1ccccc1)NC(=O)O[C@H]1CO[C@H]2OCC(F)(F)[C@H]21)S(=O)(=O)c1ccc(N)cc1` [GRL-05010] here?
The EC50 was 560 nM.

And the “fold change of EC50 HIV-1APV^R5μM vs HIV-1NL4-3” value (HIV-1APV^R5μM)?
The value was 187 fold.

What about the EC50 (HIV-1ATV^R5μM) of the same compound?
Its EC50 is 40 nM.

What about the “fold change of EC50 HIV-1ATV^R5μM vs HIV-1NL4-3” value (HIV-1ATV^R5μM) of the same compound?
Its value is 12 fold.

What about the EC50 (HIV-1LPV^R5μM) of the same compound?
The EC50 was 30 nM.

And the “fold change of EC50 HIV-1LPV^R5μM vs HIV-1NL4-3” value (HIV-1LPV^R5μM)?
Its value is 8 fold.

What about the EC50 (HIV-1SQV^R5μM) of the same compound?
The EC50 was 46 nM.

And the “fold change of EC50 HIV-1SQV^R5μM vs HIV-1NL4-3” value (HIV-1SQV^R5μM)?
The value was 13 fold.

And the EC50 [2]?
The EC50 was 29 to 39 nM.

And the EC50 (HIV-1NL4-3; [6])?
Its EC50 is 3.7 nM.

And the EC50 (HIV-1LAI; [7])?
Its EC50 is 3 nM.

And the “Selectivity Index” value (HIV-1LAI)?
The value was 12,333.

For `CC(C)(C)NC(=O)[C@@H]1C[C@@H]2CCCC[C@@H]2CN1C[C@@H](O)[C@H](Cc1ccccc1)NC(=O)[C@H](CC(N)=O)NC(=O)c1ccc2ccccc2n1` [SQV, Saquinavir], which EC50 (HIV-1APV^R5μM) is on record?
The EC50 was 90 nM.

What about the “fold change of EC50 HIV-1APV^R5μM vs HIV-1NL4-3” value (HIV-1APV^R5μM) of the same compound?
The value was 2 fold.

And the EC50 (HIV-1ATV^R5μM)?
Its EC50 is 460 nM.

And the “fold change of EC50 HIV-1ATV^R5μM vs HIV-1NL4-3” value (HIV-1ATV^R5μM)?
Its value is 12 fold.

And the EC50 (HIV-1LPV^R5μM)?
The EC50 was 25 nM.

What about the “fold change of EC50 HIV-1LPV^R5μM vs HIV-1NL4-3” value (HIV-1LPV^R5μM) of the same compound?
The value was 1 fold.

What about the EC50 (HIV-1SQV^R5μM) of the same compound?
Its EC50 is over 1000 nM.

What about the “fold change of EC50 HIV-1SQV^R5μM vs HIV-1NL4-3” value (HIV-1SQV^R5μM) of the same compound?
Its value is over 25 fold.

What about the EC50 [2] of the same compound?
Its EC50 is 32 to 36 nM.

What about the EC50 (HIV-1NL4-3; [3]) of the same compound?
The EC50 was 37 nM.

What about the CC50 at 7 days ([1]; 50% cytotoxicity, read-out: CC50) of the same compound?
Its CC50 at 7 days is 17700 ± 3400 nM.

And the “Selectivity Index” value (HIV-1LAI)?
Its value is 843.
